Source: the METLIN SMRT retention time set (Domingo-Almenara et al. 2019)

Test: gradient 5% acetonitrile 3 min, to 50% in 2 min, to 85% in 15 min, held 3 min, 100 µL/min
Details: column: Zorbax Extend-C18 2.1 x 50 mm; eluents: water / acetonitrile, 0.1% formic acid
Summary of the method: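 Using water and acetonitrile that each contained 0.1% formic acid, mixtures of ~100 pure standards were separated at 100 μL/min on a Zorbax Extend-C18 column (2.1 × 50 mm, 1.8 μm). The HPLC fed a quadrupole time-of-flight mass spectrometer working in positive and negative ionization mode, with dead and dwell volumes of 40 μL and 900 μL. Data were acquired over 3 months. Retention time was read from computationally picked adduct peaks after manual inspection of each.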

SMILES	RP-LC retention time
COc1ccc(CC(=O)N2C[C@@H]3C[C@H]2C[C@@H]3NC(=O)c2cccnc2)cc1Cl	614 s
Cc1nc(-c2csc(S(=O)(=O)N3CCC(C(=O)N4CCN(C)CC4)CC3)c2)no1	616 s
COc1ccc(S(=O)(=O)NCC2CCN(Cc3cc(C)oc3C)CC2)cc1Cl	660 s
CCN(CCCc1ccccc1)CCCc1ccccc1	874 s
O=C(Nc1cccnc1)c1ccc(Cl)c(S(=O)(=O)N2CCOCC2)c1	589 s
COCCN(C)C(=O)c1cc2c(s1)N(C)CCCC2	770 s
C=CCn1c(C)c(CC(=O)Nc2cccc(C)c2)c(=O)n2nc(-c3ccc(C)cc3)nc12	989 s
CC(=O)N1c2ccc(S(=O)(=O)N3CCCCC3)cc2CC1C(=O)N1CCCC1 (stereo unspecified)	743 s
CCc1nc2cc(N3CCCC(C(=O)NCc4cccnc4)C3)cnc2nc1CC (stereo unspecified)	600 s
Cc1cc(-c2nnc(-c3ccc(F)cc3)o2)c(C)n1CC(=O)Nc1ccc(F)c(F)c1	1040 s
COc1ccc(NC(=O)Cn2nc3c(N4CCSCC4)nccn3c2=O)cc1OC	720 s
O=C(NCCc1ccccc1)Nc1nccn(-c2ccc3c(c2)CCC3)c1=O	1060 s
Cc1nn(CC(=O)NCCc2ccco2)c(=O)c2c(-n3cccc3)n(-c3ccc(Cl)cc3)nc12	973 s
CCOC(=O)N1CCN(S(=O)(=O)c2c[nH]c(=O)[nH]c2=O)CC1	582 s
CN(C)c1ccc(CCNC(=O)c2cccc(C(F)(F)F)c2)cc1	621 s
Cc1cc(C(=O)NCc2ccc(C)o2)c2ccccc2n1	634 s
COc1ccc([N+](=O)[O-])cc1NC(=O)c1cnc(N2CCN(c3ncccn3)CC2)c2ccccc12	973 s
Cc1ccc(CNC(=O)Cn2c(C)cc(-c3nnc(C4CCC4)o3)c2C)cc1	903 s
COc1ccc(-c2nnc(-c3ccccc3)o2)cc1S(=O)(=O)NC(C)(C)CO	759 s
Cc1ccc(NC(=O)Cn2nc(N3CCCC(C)C3)c3ccccc3c2=O)cc1F (stereo unspecified)	1220 s
COc1ccc(OC)c(NC(=O)Nc2c(-c3ccc(F)cc3)nc3ccccn23)c1	625 s
CCc1noc(NC(C)=O)c1-c1ccc(C)c(S(=O)(=O)Nc2cccc(C#N)c2)c1	776 s
O=C(Nc1cccc(C(=O)N2CCN(c3cccc(Cl)c3)CC2)c1)C1=CSCCO1	953 s

SMILES	RP-LC retention time
CCN1CCCC1CNS(=O)(=O)c1cc(-c2nc(C)c(C(=O)N3CCCC3)s2)cs1 (stereo unspecified)	604 s
O=C(Nc1cc(F)cc(F)c1)C1CCN(C(=O)c2ncn3c2COC(c2ccc(F)cc2)C3)CC1 (stereo unspecified)	858 s
COCCCNC(=O)N1CCCCCC1c1cccc(C)c1 (stereo unspecified)	910 s
CC(C)Cc1cc(-c2nn3c(Cc4ccccc4)nnc3s2)n[nH]1	910 s
COc1cc(NC(=O)c2cn(-c3cc(N4CCCC4)ncn3)cn2)cc(OC)c1	860 s
Cc1ccc(Cn2nnc(C(=O)NCc3ccco3)c2-n2cccc2)cc1	1010 s
O=C(Cn1nc2c(Oc3cccc(F)c3)nccn2c1=O)Nc1ccccc1	810 s
Cn1nc(C(=O)NCC2(C)CCOCC2)c2ccccc21	763 s
Cc1ccn2c(NC(=O)c3cccc(Cl)c3)c(-c3ccccc3)nc2c1	682 s
O=C(c1ccc(Cl)c(Cl)c1)N1CCN(Cc2nncn2C2CCCCC2)CC1	708 s
O=C(NCc1cccs1)NCC1(CO)CC1	592 s
CCn1cc(C(=O)Nc2ccc(C)c(F)c2)c2cccnc21	920 s
CCCn1cc(S(=O)(=O)CC(=O)Nc2ccc(C(=O)OCC)cc2)c2ccccc21	890 s
O=C(c1ccc(F)cc1F)N1CCN(c2ccc3nncn3n2)CC1	601 s
Cc1cc2c(c(=O)n(-c3ccccc3)c(=O)n2CC(=O)Nc2cccc(Br)c2)n1C	836 s
Cc1ccccc1NS(=O)(=O)c1cc2n(c1)CCN(CC(C)C)C2=O	795 s
O=C(Nc1ccc2c(c1)OCO2)c1cccc2c1CCN2C(=O)Nc1ccc(F)cc1	929 s
COc1cccc(-n2nnc(C(=O)O)c2C(C)C)c1	734 s
CC(C)n1cnc2cc(CNC(=O)c3ccccc3Cl)ccc21	597 s
Cc1noc(-c2nn(C)c3c2CN(C(=O)c2cc(F)ccc2F)CC3)n1	737 s
COC(=O)c1ccc2c(=O)n(-c3cc(C)cc(C)c3)c(N3CCC(C)CC3)nc2c1	1420 s
CCOC(=O)N1CCC(NS(=O)(=O)CCCOc2ccc(F)cc2)CC1	758 s
Cc1cc(NC(=O)C2CCN(S(=O)(=O)c3cn(C(C)C)cn3)CC2)ccc1Br	876 s

SMILES	RP-LC retention time
Cc1ccc(C(O)CN2CCN(c3ccccc3C)CC2)cc1 (stereo unspecified)	718 s
CCC(=O)N1CCc2c([nH]c3ccccc23)C12C(=O)N(C)c1ccc(Br)cc12 (stereo unspecified)	939 s
CC(C)c1cc(N2CCN(C(=O)Cc3cccs3)CC2)nc2nncn12	613 s
Cc1ccc2c(c1)N(S(C)(=O)=O)CCC(C(=O)Nc1ccccc1C)O2 (stereo unspecified)	894 s
COc1ccc(N2CC(C(=O)N3CCc4cc(-c5ccno5)ccc43)CC2=O)cc1 (stereo unspecified)	807 s
CCOC(=O)c1ccccc1NC(=O)Cn1nc2n(c1=O)CCCCC2	821 s
COc1ccc(C2Cn3nnc(-c4nc(-c5ccncc5)no4)c3CO2)cc1 (stereo unspecified)	873 s
Cc1ccc(NC(=O)N2CCCC2c2nncn2C2CCCC2)cc1F (stereo unspecified)	728 s
COC(=O)c1ccc(-c2nc3cnccn3c2NC2CCCC2)cc1	877 s
CCCNC(=O)C1CCCN(c2nc3ccsc3c(=O)n2-c2ccc(C)cc2)C1 (stereo unspecified)	1250 s
COc1ccc(NC(=O)N2CCN(c3nc4cccnc4s3)CC2)cc1	690 s
COC(=O)c1ccc(NC(=O)N(C)Cc2cc(=O)[nH]c3ccccc23)cc1	694 s
COc1cc(OC)cc(C(=O)NC2CCN(c3cc(-c4cccs4)[nH]n3)C2)c1 (stereo unspecified)	741 s
Cc1cc(NC(=O)CN2CCc3ccccc3C2C(=O)N2CCCCC2)ccc1F (stereo unspecified)	964 s
CC(C)NC(=O)c1ccc(OCC2CCCN(C(=O)Cc3ccc(Cl)cc3)C2)cc1 (stereo unspecified)	918 s
COc1cn(CC(=O)NCc2ccccc2Cl)c(CO)cc1=O	564 s
Cc1cc(NS(=O)(=O)c2cc(-c3nc(C(C)(C)C)cs3)cs2)ccc1F	1220 s
O=C(NCc1ccc(Cl)cc1)NCC(O)Cc1ccccc1 (stereo unspecified)	721 s
CCCc1cc(C2CCCN2C(=O)c2c(OC)cccc2OC)no1 (stereo unspecified)	898 s
Cc1ccc(C(=O)NCc2ccc3c(c2)nnn3C)cc1	693 s
CCOc1cccc(-c2noc(Cn3c(=O)n(C(C)C)c(=O)c4ccccc43)n2)c1	1190 s
O=C(Cn1c(=O)c(CCC(=O)NC2CCCC2)nc2ccccc21)NCc1ccccc1Cl	842 s
O=C(Cc1cccc2ccccc12)NCCOc1ccc(F)cc1	860 s

SMILES	RP-LC retention time
CCc1nnc(NC(=O)CSc2nccn2Cc2ccc3c(c2)OCO3)s1	586 s
CN1CCN(CCNC(=O)C2CCc3sc(C(=O)N4CCCCCC4)cc3C2)CC1 (stereo unspecified)	601 s
Cc1ccccc1C(=O)NCc1nn(C)c2ccccc12	857 s
O=C(NCC(c1cccnc1)N1CCc2ccccc21)C(=O)Nc1ccccc1[N+](=O)[O-] (stereo unspecified)	702 s
C[C@H](NC(=O)C1CCN(S(=O)(=O)c2ccccc2)CC1)C(=O)O	643 s
COc1cc(C(=O)N2CCN(c3cc(C)n4c(C)nnc4n3)CC2)cc(OC)c1OC	587 s
Cn1cc(C(=O)NCc2nc(-c3ccccc3)no2)nn1	661 s
COc1ccc(CNC(=O)Cc2nnc(-c3ccccn3)o2)cc1OC	622 s
c1ccc(-n2ncc3c(Nc4ccc5c(c4)OCO5)nc(N4CCCC4)nc32)cc1	1350 s
Cc1cccc(-n2ccnc2SCC(=O)Nc2nccs2)c1C	670 s
COc1ccc(NC(=O)CCOc2ccccc2)cc1	763 s
CCN1CCN(C2CCN(C(=O)c3ccco3)CC2)C1=O	627 s
Cc1c(-c2cccc(NC(=O)C3CCCCC3)c2)nc2ncccn12	663 s
C=CCn1c(=O)c2ccccc2n(Cc2nc(-c3ccccc3)no2)c1=O	1000 s
CCNC(=O)N1CCC(OC2CCN(Cc3ccccc3)CC2)CC1	570 s
CC(=O)NCc1nc(-c2ccc3c(c2)nc(C)c(=O)n3C2CCCC2)no1	707 s
Cc1ccc(C)c(Nc2nc(-c3ccncc3)nc3ccccc23)c1	772 s
Cc1ccc(CS(=O)(=O)N2CCC(n3c(-c4ccco4)nc4cccnc43)C2)cc1C (stereo unspecified)	995 s
COc1cccc(-n2c(N3CCCC(C(=O)Nc4ccc(F)cc4)C3)nc3ccsc3c2=O)c1 (stereo unspecified)	932 s
O=C(NCc1cccs1)C1CCN(c2nnc3ccccn23)CC1	528 s
O=C(c1cn2ccnc(-c3ccccc3)c2n1)N1CCCC1	831 s
COc1cc(NC(=O)Nc2nccn(-c3ccc(Cl)cc3)c2=O)cc(OC)c1	970 s
